Patent publication US11999715B2, “ASK1 inhibiting agents” (BIOGEN MA INC., priority 2018, dated 2024)

Experiments:
ASK1/MAP3K5 = target: T1, ASK1/MAP3K5 (Homo sapiens, UniProt Q99683); assay: ASK1/MAP3K5 kinase assay by Reaction Biology Corp. (headed ASK1 TR-FRET Assay); assay type: biochemical; settings: 20 μM myelin basic protein, 10 μM ATP, class symbols
T1 sequence (Q99683 1-1374): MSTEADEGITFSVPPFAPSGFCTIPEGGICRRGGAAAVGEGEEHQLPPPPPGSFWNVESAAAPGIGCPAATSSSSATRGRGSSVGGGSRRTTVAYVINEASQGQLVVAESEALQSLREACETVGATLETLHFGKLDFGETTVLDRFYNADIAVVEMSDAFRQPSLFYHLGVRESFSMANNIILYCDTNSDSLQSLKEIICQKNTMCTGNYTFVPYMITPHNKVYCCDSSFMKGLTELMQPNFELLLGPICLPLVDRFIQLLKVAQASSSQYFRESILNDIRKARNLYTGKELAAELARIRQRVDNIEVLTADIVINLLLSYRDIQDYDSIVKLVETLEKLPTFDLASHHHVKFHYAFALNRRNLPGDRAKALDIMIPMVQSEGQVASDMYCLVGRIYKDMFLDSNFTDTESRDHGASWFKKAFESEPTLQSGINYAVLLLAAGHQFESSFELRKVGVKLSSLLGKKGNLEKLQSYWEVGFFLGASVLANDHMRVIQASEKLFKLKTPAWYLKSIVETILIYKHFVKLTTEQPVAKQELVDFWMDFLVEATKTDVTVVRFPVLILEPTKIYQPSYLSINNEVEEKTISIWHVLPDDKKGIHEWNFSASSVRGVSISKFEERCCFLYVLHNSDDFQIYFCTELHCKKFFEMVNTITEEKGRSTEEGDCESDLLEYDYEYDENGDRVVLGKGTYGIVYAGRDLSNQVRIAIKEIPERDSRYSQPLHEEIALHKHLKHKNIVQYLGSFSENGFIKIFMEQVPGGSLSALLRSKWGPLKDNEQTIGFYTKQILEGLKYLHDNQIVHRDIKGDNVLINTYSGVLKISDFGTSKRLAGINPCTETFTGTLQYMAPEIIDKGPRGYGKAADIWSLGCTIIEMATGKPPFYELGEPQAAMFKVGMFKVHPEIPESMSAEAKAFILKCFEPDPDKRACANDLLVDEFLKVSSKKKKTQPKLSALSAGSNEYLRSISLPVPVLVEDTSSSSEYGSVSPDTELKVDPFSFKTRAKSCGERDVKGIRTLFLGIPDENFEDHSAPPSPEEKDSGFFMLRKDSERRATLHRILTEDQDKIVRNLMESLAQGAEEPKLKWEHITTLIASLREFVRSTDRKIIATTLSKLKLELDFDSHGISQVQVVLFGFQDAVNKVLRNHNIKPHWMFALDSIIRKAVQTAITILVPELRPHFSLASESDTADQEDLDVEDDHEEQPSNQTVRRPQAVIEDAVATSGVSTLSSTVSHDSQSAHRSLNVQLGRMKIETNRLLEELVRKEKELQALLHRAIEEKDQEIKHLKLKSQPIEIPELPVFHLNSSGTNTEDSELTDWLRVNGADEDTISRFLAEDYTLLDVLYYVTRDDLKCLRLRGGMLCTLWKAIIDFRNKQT
Outline: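 Radiometric filter-binding assay with ASK1/MAP3K5, 20 μM MBP substrate and 10 μM ATP plus ^33P-ATP in HEPES pH 7.5 buffer with 1% DMSO. Compounds were preincubated with kinase 20 min, and the reaction then ran 2 hours at room temperature.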

[1] = target: T2, ASK1 T838 auto phosphorylation (Homo sapiens, UniProt Q99683); assay: ASK1 (AUTO PHOS T838) assay, MSD format, in HEK-293T cells transfected with ASK1-V5; assay type: cell-based; settings: ASK1 T838 auto phosphorylation in HEK-293T cells, 1 hr compound incubation; class symbols
T2 sequence (Q99683 1-1374): T1 sequence (Q99683 1-1374)
Outline: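 HEK-293T cells transiently transfected with full-length ASK1-V5 plasmid were replated, then treated 1 h at 37 °C with a 10-point, 3-fold series from 20 μM. Lysates were probed by MSD with anti-pASK1 T838 and a sulfo-tag secondary, read by chemiluminescence. IC50 came from a 4-parameter fit of normalized % activity.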

Row | Structure (SMILES) | IC50 (ASK1/MAP3K5) | IC50 [1]
1 | COc1nn(CC(F)(F)F)cc1C(=O)Nc1cccc(-c2nncn2[C@@H](C)C(F)(F)F)n1 [Example 103, (S)-3-Methoxy-1-(2,2,2-trifluoroethyl)-N-(6-(4-(1,1,1-trifluoropropan-2-yl)-4H-1,2,4-triazol-3-yl)pyridin-2-yl)-1H-pyrazole-4-carboxamide] | ≤ 100 nM | ≤ 1000 nM
2 | COc1nn(C)cc1C(=O)Nc1cccc(-c2nncn2C2CC(F)(F)C2)n1 [Example 19, N-(6-(4-(3,3-Difluorocyclobutyl)-4H-1,2,4-triazol-3-yl)pyridin-2-yl)-3-methoxy-1-methyl-1H-pyrazole-4-carboxamide] | ≤ 100 nM | ≤ 1000 nM
3 | COCCn1cc(C(=O)Nc2cccc(-c3nncn3C3CC3)n2)c(OC)n1 [Example 54, N-(6-(4-Cyclopropyl-4H-1,2,4-triazol-3-yl)pyridin-2-yl)-3-methoxy-1-(2-methoxyethyl)-1H-pyrazole-4-carboxamide] | ≤ 100 nM | ≤ 1000 nM
4 | CC(C)n1cnnc1-c1cccc(NC(=O)c2cn(C)nc2C(F)(F)F)n1 [Example 5, N-(6-(4-Isopropyl-4H-1,2,4-triazol-3-yl)pyridin-2-yl)-1-methyl-3-(trifluoromethyl)-1H-pyrazole-4-carboxamide] | 100 to 1000 nM | 1000 to 10000 nM
5 | CC(C)n1cnnc1-c1cccc(NC(=O)c2cn(-c3cncc(O)c3)nc2C(F)F)n1 [Example 80, 3-(Difluoromethyl)-1-(5-hydroxypyridin-3-yl)-N-(6-(4-isopropyl-4H-1,2,4-triazol-3-yl)pyridin-2-yl)-1H-pyrazole-4-carboxamide] | ≤ 100 nM | ≤ 1000 nM
6 | COc1nn(C)cc1C(=O)Nc1cccc(-c2nncn2C2CCOCC2)n1 [Example 108, 3-Methoxy-1-methyl-N-(6-(4-(tetrahydro-2H-pyran-4-yl)-4H-1,2,4-triazol-3-yl)pyridin-2-yl)-1H-pyrazole-4-carboxamide] | 100 to 1000 nM | 1000 to 10000 nM
7 | C[C@H](n1cnnc1-c1cccc(NC(=O)c2cn(-c3cnccn3)nc2C(F)F)n1)C(F)(F)F [Example 89, (S)-3-(Difluoromethyl)-1-(pyrazin-2-yl)-N-(6-(4-(1,1,1-trifluoropropan-2-yl)-4H-1,2,4-triazol-3-yl)pyridin-2-yl)-1H-pyrazole-4-carboxamide] | ≤ 100 nM | ≤ 1000 nM
8 | CC(C)Oc1cncc(-n2cc(C(=O)Nc3cccc(-c4nncn4C(C)C)n3)c(C(F)F)n2)c1 [Example 81, 3-(Difluoromethyl)-1-(5-isopropoxypyridin-3-yl)-N-(6-(4-isopropyl-4H-1,2,4-triazol-3-yl)pyridin-2-yl)-1H-pyrazole-4-carboxamide] | ≤ 100 nM | ≤ 1000 nM
9 | CC(C)n1cncc1-c1cccc(NC(=O)c2cn(-c3cncc(N(C)C)c3)nc2C(F)F)n1 [Example 98, 3-(Difluoromethyl)-1-(5-(dimethylamino)pyridin-3-yl)-N-(6-(1-isopropyl-1H-imidazol-5-yl)pyridin-2-yl)-1H-pyrazole-4-carboxamide] | 100 to 1000 nM | ≤ 1000 nM
10 | COc1nn(CC(F)(F)F)cc1C(=O)Nc1cccc(-c2cncn2C(C)C)n1 [Example 106, N-(6-(1-Isopropyl-1H-imidazol-5-yl)pyridin-2-yl)-3-methoxy-1-(2,2,2-trifluoroethyl)-1H-pyrazole-4-carboxamide] | ≤ 100 nM | ≤ 1000 nM
11 | CCOc1nn(C)cc1C(=O)Nc1cccc(-c2nncn2C(C)C)n1 [Example 3, 3-Ethoxy-N-(6-(4-isopropyl-4H-1,2,4-triazol-3-yl)pyridin-2-yl)-1-methyl-1H-pyrazole-4-carboxamide] | ≤ 100 nM | ≤ 1000 nM
12 | COc1nn(C)cc1C(=O)Nc1cccc(-c2nncn2[C@H](C)C(F)(F)F)n1 [Example 11, (R)-3-Methoxy-1-methyl-N-(6-(4-(1,1,1-trifluoropropan-2-yl)-4H-1,2,4-triazol-3-yl)pyridin-2-yl)-1H-pyrazole-4-carboxamide] | 100 to 1000 nM | ≤ 1000 nM
13 | COCCn1cc(C(=O)Nc2cccc(-c3nncn3[C@@H](C)C(F)(F)F)n2)c(C(F)F)n1 [Example 51, (S)-3-(Difluoromethyl)-1-(2-methoxyethyl)-N-(6-(4-(1,1,1-trifluoropropan-2-yl)-4H-1,2,4-triazol-3-yl)pyridin-2-yl)-1H-pyrazole-4-carboxamide] | ≤ 100 nM | ≤ 1000 nM
14 | COCCn1cc(C(=O)Nc2cccc(-c3cncn3C(C)C)n2)c(OC)n1 [Example 92, N-(6-(1-Isopropyl-1H-imidazol-5-yl)pyridin-2-yl)-3-methoxy-1-(2-methoxyethyl)-1H-pyrazole-4-carboxamide] | ≤ 100 nM | ≤ 1000 nM
15 | COc1nn(C)cc1C(=O)Nc1cccc(-c2nncn2C2CCC2)n1 [Example 17, N-(6-(4-Cyclobutyl-4H-1,2,4-triazol-3-yl)pyridin-2-yl)-3-methoxy-1-methyl-1H-pyrazole-4-carboxamide] | ≤ 100 nM | ≤ 1000 nM
16 | COc1nn(C)cc1C(=O)Nc1cccc(-c2nncn2C2CCN(C(=O)OC(C)(C)C)CC2)n1 [Example 38, tert-Butyl 4-(3-(6-(3-methoxy-1-methyl-1H-pyrazole-4-carboxamido)pyridin-2-yl)-4H-1,2,4-triazol-4-yl)piperidine-1-carboxylate] | 100 to 1000 nM | ≤ 1000 nM
17 | COc1nn(CC(C)C)cc1C(=O)Nc1cccc(-c2nncn2C(C)C)n1 [Example 42, 1-Isobutyl-N-(6-(4-isopropyl-4H-1,2,4-triazol-3-yl)pyridin-2-yl)-3-methoxy-1H-pyrazole-4-carboxamide] | ≤ 100 nM | ≤ 1000 nM
18 | COc1nn(C)cc1C(=O)Nc1cccc(-c2nncn2[C@H]2CCN(C(=O)OC(C)(C)C)C2)n1 (single isomer, unassigned) [Example 40] | 100 to 1000 nM | 1000 to 10000 nM
19 | CC(C)n1cnnc1-c1cccc(NC(=O)c2cn(-c3cncc(C4CC4)c3)nc2C(F)F)n1 [Example 77, 1-(5-Cyclopropylpyridin-3-yl)-3-(difluoromethyl)-N-(6-(4-isopropyl-4H-1,2,4-triazol-3-yl)pyridin-2-yl)-1H-pyrazole-4-carboxamide] | ≤ 100 nM | ≤ 1000 nM
20 | CCn1cc(C(=O)Nc2cccc(-c3nncn3C(C)C(F)(F)F)n2)c(OC)n1 (stereo not shown) [Example 13, 1-Ethyl-3-methoxy-N-(6-(4-(1,1,1-trifluoropropan-2-yl)-4H-1,2,4-triazol-3-yl)pyridin-2-yl)-1H-pyrazole-4-carboxamide] | ≤ 100 nM | ≤ 1000 nM
21 | COc1nn(CC(C)C)cc1C(=O)Nc1cccc(-c2nncn2C(C)C(F)(F)F)n1 (stereo not shown) [Example 43, 1-Isobutyl-3-methoxy-N-(6-(4-(1,1,1-trifluoropropan-2-yl)-4H-1,2,4-triazol-3-yl)pyridin-2-yl)-1H-pyrazole-4-carboxamide] | ≤ 100 nM | ≤ 1000 nM
22 | CC(C)n1cnnc1-c1cccc(NC(=O)c2cn(-c3cncc(N(C)C)c3)nc2C(F)F)n1 [Example 79, 3-(Difluoromethyl)-1-(5-(dimethylamino)pyridin-3-yl)-N-(6-(4-isopropyl-4H-1,2,4-triazol-3-yl)pyridin-2-yl)-1H-pyrazole-4-carboxamide] | ≤ 100 nM | ≤ 1000 nM
23 | CCn1cc(C(=O)Nc2cccc(-c3nncn3[C@@H](C)C(F)(F)F)n2)c(OC)n1 [Example 15, (S)-1-Ethyl-3-methoxy-N-(6-(4-(1,1,1-trifluoropropan-2-yl)-4H-1,2,4-triazol-3-yl)pyridin-2-yl)-1H-pyrazole-4-carboxamide] | ≤ 100 nM | ≤ 1000 nM
